Experimental data as given in patent US8486464B2, “Herbal composition for angina pectoris, method to prepare same and uses thereof” (Tasly Pharmaceutical Group Co. Ltd., priority 2000, dated 2013).

Experiments:
Assay type in all cases: in vivo
myocardial ischemia = assay: Dog acute myocardial ischemia: level and area by ECG (Σ-ST, N-ST); details: dogs, Dan Shen Pill 2 g/kg, Ditiazem 5 mg/kg
Protocol: (§1) 1.1 Experimental Groups. (1) Blank control group, normal saline 3 ml/kg; (2) DSP group, 2 g natural drug/kg; (3) positive control group, Ditiazem, 5 mg/kg. All the above samples are diluted with normal saline to the same volume of 3 ml/kg and were given to the patient through the duodenum.
(§2) 1.2 Experimental Method. The dogs are anesthetized with pentobarbital sodium. Chests were opened and coronary arterioles and the central part of the dorsal lower branch separated and tied to create an acute myocardial ischemia model. ECGs were recorded and the level of myocardial ischemia (increased section ST, ST) and area of myocardial ischemia (the total increased decimal places in section ST) were calculated. The oxygen content in the coronary artery was recorded. Blood serum creatine kinase (CK), lactate dehydrogenase (LDH), ET, TXB2 and 6-Keto-PGF1 were measured. The oxygen content of the aorta and coronary vein, and blood flow volume in the coronary arteries were measured to calculate myocardial oxygen consumption. Blood oxygen content in the coronary vein was measured to calculate myocardial oxygen content (myocardial oxygen content=(blood oxygen content in arteries-blood oxygen content in coronary veins)×blood flow volume in coronary artery/100).
(§3) The significance of the experimental results was tested by the t-testing method.

myocardial infarction = assay: Dog myocardial infarction area (N-BT); details: dogs; Dan Shen Pill 2 g/kg, Ditiazem 5 mg/kg
Protocol: as §1
The hearts were removed 180 mins after treatment and weighed, cut into slices, and colored with N-BT. The infarction area of each slice (N-BT-uncolorized area) and non-infarction area (N-BT colorized area) were measured. The percentage occupied by the infarction area in the ventricles was calculated and the whole heart was weighted.
as §3

[1] = tested on: venous blood oxygen content; assay: Dog coronary venous blood oxygen content; details: dogs, Dan Shen Pill 2 g/kg, Ditiazem 5 mg/kg
Protocol: as §1, §2

ET, TXB2, 6-Keto-PGF1α = assay: Dog plasma ET, TXB2, 6-Keto-PGF1α; parameters: 6-Keto-PGF1α: unit not given beside the values; details: dogs, Dan Shen Pill 2 g/kg, Diltiazem 5 mg/kg
Protocol: as §1, §2

SOD, MDA = assay: Rat M-IR damage: SOD activity and MDA content in blood serum; details: Wistar, 2 hrs after duodenal dosing, DSP 3.0 g/kg, Ditiazem 30 mg/kg
Protocol: (1) Experimental Groups. Control group (Serum taken as normal control), Model group (Normal Saline), Ditiazem group (30 mg/kg), DSP 6.0, 3.0 g/kg group. Each group was diluted to its necessary concentration with 3 ml/kg normal saline through the duodenum.
(2) Experimental Method. Wistar animal is anesthetized by pentobarbital sodium and fixed. Chests and cardial membranes are opened to expose the heart. A hole in the left lower dorsal part of the coronary artery is left for tying. Separate the duodenum, and infuse the tested drugs into it. Take blood from the abdomen after 2 hrs and test the MDA and SOD content in the blood serum.

COc1ccc([C@@H]2Sc3ccccc3N(CCN(C)C)C(=O)[C@@H]2OC(C)=O)cc1 [Ditiazem]
N-ST (myocardial ischemia; 15 min after dosage): 29.80 | N-ST, changing in percentage (before dosage = 100%) (myocardial ischemia; 15 min after dosage): 99.33% | Σ-ST (myocardial ischemia; 15 min after dosage): 277.80 | Σ-ST, changing in percentage (before dosage = 100%) (myocardial ischemia; 15 min after dosage): 91.83% | N-ST (myocardial ischemia; 30 min after dosage): 29.60 | N-ST, changing in percentage (before dosage = 100%) (myocardial ischemia; 30 min after dosage): 98.67% | Σ-ST (myocardial ischemia; 30 min after dosage): 226.20 | Σ-ST, changing in percentage (before dosage = 100%) (myocardial ischemia; 30 min after dosage): 74.87% | N-ST (myocardial ischemia; 45 min after dosage): 29.20 | N-ST, changing in percentage (before dosage = 100%) (myocardial ischemia; 45 min after dosage): 97.33% | Σ-ST (myocardial ischemia; 45 min after dosage): 213.40 | Σ-ST, changing in percentage (before dosage = 100%) (myocardial ischemia; 45 min after dosage): 70.59% | N-ST (myocardial ischemia; 60 min after dosage): 28.40 | N-ST, changing in percentage (before dosage = 100%) (myocardial ischemia; 60 min after dosage): 94.67% | Σ-ST (myocardial ischemia; 60 min after dosage): 186.20 | Σ-ST, changing in percentage (before dosage = 100%) (myocardial ischemia; 60 min after dosage): 61.61% | N-ST (myocardial ischemia; 90 min after dosage): 27.00 | N-ST, changing in percentage (before dosage = 100%) (myocardial ischemia; 90 min after dosage): 90.00% | Σ-ST (myocardial ischemia; 90 min after dosage): 175.20 | Σ-ST, changing in percentage (before dosage = 100%) (myocardial ischemia; 90 min after dosage): 57.95% | N-ST (myocardial ischemia; 120 min after dosage): 26.80 | N-ST, changing in percentage (before dosage = 100%) (myocardial ischemia; 120 min after dosage): 89.33% | Σ-ST (myocardial ischemia; 120 min after dosage): 468.00 | Σ-ST, changing in percentage (before dosage = 100%) (myocardial ischemia; 120 min after dosage): 55.60% | N-ST (myocardial ischemia; 180 min after dosage): 25.20 | N-ST, changing in percentage (before dosage = 100%) (myocardial ischemia; 180 min after dosage): 84.00% | Σ-ST (myocardial ischemia; 180 min after dosage): 122.80 | Σ-ST, changing in percentage (before dosage = 100%) (myocardial ischemia; 180 min after dosage): 40.63% | N-ST (myocardial ischemia; before dosage): 30.00 | Σ-ST (myocardial ischemia; before dosage): 302.80 | Area of Cardiac Chamber (myocardial infarction): 5377.8 ± 411.2 mm2 | Area of Infarction (myocardial infarction): 378.98 ± 138.41 mm2 | Infarction Location/Cardiac Chamber (myocardial infarction): 7.22 ± 2.87 | Infarction Location/Heart (myocardial infarction): 2.52 ± 1.35 | Myocardial area (myocardial infarction): 14096.5 ± 3056.4 mm2 | VO2, changing percentage (before dosage = 100%) ([1]; 30 min after dosage): 97.70 ± 10.36% | venous oxygen volume (VO2) ([1]; 30 min after dosage): 16.08 ± 1.13 ml % | VO2, changing percentage (before dosage = 100%) ([1]; 60 min after dosage): 95.95 ± 8.27% | venous oxygen volume (VO2) ([1]; 60 min after dosage): 15.84 ± 1.43 ml % | VO2, changing percentage (before dosage = 100%) ([1]; 90 min after dosage): 96.37 ± 5.54% | venous oxygen volume (VO2) ([1]; 90 min after dosage): 15.92 ± 1.29 ml % | VO2, changing percentage (before dosage = 100%) ([1]; 120 min after dosage): 92.15 ± 9.42% | venous oxygen volume (VO2) ([1]; 120 min after dosage): 15.20 ± 1.50 ml % | VO2, changing percentage (before dosage = 100%) ([1]; 180 min after dosage): 89.62 ± 11.94% | venous oxygen volume (VO2) ([1]; 180 min after dosage): 14.82 ± 2.28 ml % | venous oxygen volume (VO2) ([1]; after hypoxia (value before dosage)): 16.56 ± 1.61 ml % | VO2, changing percentage ([1]; after hypoxia, before dosage): 111.45 ± 33.86% | venous oxygen volume (VO2) ([1]; before hypoxia (normal value)): 15.44 ± 2.42 ml % | 6-Keto-PGF1α (ET, TXB2, 6-Keto-PGF1α; 30 min after dosage): 1749.4 ± 278.3 | 6-Keto-PGF1α, changing in percentage (before dosage = 100%) (ET, TXB2, 6-Keto-PGF1α; 30 min after dosage): 118.95 ± 14.47 % | ET, changing in percentage (before dosage = 100%) (ET, TXB2, 6-Keto-PGF1α; 30 min after dosage): 85.14 ± 13.98 % | TXB2, changing in percentage (before dosage = 100%) (ET, TXB2, 6-Keto-PGF1α; 30 min after dosage): 101.14 ± 17.90 % | blood plasma ET (ET, TXB2, 6-Keto-PGF1α; 30 min after dosage): 47.51 ± 7.39 pg/mL | blood plasma TXB2 (ET, TXB2, 6-Keto-PGF1α; 30 min after dosage): 143.40 ± 28.64 pg/mL | 6-Keto-PGF1α (ET, TXB2, 6-Keto-PGF1α; 60 min after dosage): 1902.6 ± 155.1 | 6-Keto-PGF1α, changing in percentage (before dosage = 100%) (ET, TXB2, 6-Keto-PGF1α; 60 min after dosage): 131.19 ± 16.98 % | ET, changing in percentage (before dosage = 100%) (ET, TXB2, 6-Keto-PGF1α; 60 min after dosage): 84.06 ± 18.24 % | TXB2, changing in percentage (before dosage = 100%) (ET, TXB2, 6-Keto-PGF1α; 60 min after dosage): 92.58 ± 15.17 % | blood plasma ET (ET, TXB2, 6-Keto-PGF1α; 60 min after dosage): 46.38 ± 9.02 pg/mL | blood plasma TXB2 (ET, TXB2, 6-Keto-PGF1α; 60 min after dosage): 134.40 ± 46.48 pg/mL | 6-Keto-PGF1α (ET, TXB2, 6-Keto-PGF1α; 90 min after dosage): 1912.4 ± 258.5 | 6-Keto-PGF1α, changing in percentage (before dosage = 100%) (ET, TXB2, 6-Keto-PGF1α; 90 min after dosage): 132.75 ± 28.52 % | ET, changing in percentage (before dosage = 100%) (ET, TXB2, 6-Keto-PGF1α; 90 min after dosage): 71.69 ± 12.10 % | TXB2, changing in percentage (before dosage = 100%) (ET, TXB2, 6-Keto-PGF1α; 90 min after dosage): 69.72 ± 8.76 % | blood plasma ET (ET, TXB2, 6-Keto-PGF1α; 90 min after dosage): 39.97 ± 7.95 pg/mL | blood plasma TXB2 (ET, TXB2, 6-Keto-PGF1α; 90 min after dosage): 1093.4 ± 320.9 pg/mL | 6-Keto-PGF1α (ET, TXB2, 6-Keto-PGF1α; 120 min after dosage): 1982.8 ± 574.2 | 6-Keto-PGF1α, changing in percentage (before dosage = 100%) (ET, TXB2, 6-Keto-PGF1α; 120 min after dosage): 139.39 ± 56.36 % | ET, changing in percentage (before dosage = 100%) (ET, TXB2, 6-Keto-PGF1α; 120 min after dosage): 74.30 ± 17.04 % | TXB2, changing in percentage (before dosage = 100%) (ET, TXB2, 6-Keto-PGF1α; 120 min after dosage): 63.03 ± 14.20 % | blood plasma ET (ET, TXB2, 6-Keto-PGF1α; 120 min after dosage): 41.42 ± 15.69 pg/mL | blood plasma TXB2 (ET, TXB2, 6-Keto-PGF1α; 120 min after dosage): 1284.1 ± 695.0 pg/mL | 6-Keto-PGF1α (ET, TXB2, 6-Keto-PGF1α; 180 min after dosage): 1705.2 ± 412.2 | 6-Keto-PGF1α, changing in percentage (before dosage = 100%) (ET, TXB2, 6-Keto-PGF1α; 180 min after dosage): 119.08 ± 39.78% | ET, changing in percentage (before dosage = 100%) (ET, TXB2, 6-Keto-PGF1α; 180 min after dosage): 82.16 ± 14.09 % | TXB2, changing in percentage (before dosage = 100%) (ET, TXB2, 6-Keto-PGF1α; 180 min after dosage): 62.77 ± 14.51 % | blood plasma ET (ET, TXB2, 6-Keto-PGF1α; 180 min after dosage): 45.74 ± 9.40 pg/mL | blood plasma TXB2 (ET, TXB2, 6-Keto-PGF1α; 180 min after dosage): 1032.7 ± 343.1 pg/mL | 6-Keto-PGF1α (ET, TXB2, 6-Keto-PGF1α; after hypoxia before dosage): 1478.8 ± 218.6 | 6-Keto-PGF1α, changing in percentage (ET, TXB2, 6-Keto-PGF1α; after hypoxia before dosage): 92.3 ± 5.53% | ET, changing in percentage (ET, TXB2, 6-Keto-PGF1α; after hypoxia before dosage): 178.30 ± 57.33% | TXB2, changing in percentage (ET, TXB2, 6-Keto-PGF1α; after hypoxia before dosage): 101.14 ± 19.90 % | blood plasma ET (ET, TXB2, 6-Keto-PGF1α; after hypoxia before dosage): 55.51 ± 3.59 pg/mL | blood plasma TXB2 (ET, TXB2, 6-Keto-PGF1α; after hypoxia before dosage): 143.40 ± 28.64 pg/mL | 6-Keto-PGF1α (ET, TXB2, 6-Keto-PGF1α; before hypoxia (normal value)): 1597.4 ± 185.3 | blood plasma ET (ET, TXB2, 6-Keto-PGF1α; before hypoxia (normal)): 34.41 ± 9.41 pg/mL | blood plasma TXB2 (ET, TXB2, 6-Keto-PGF1α; before hypoxia (normal)): 106.40 ± 19.12 pg/mL | MDA, blood serum (SOD, MDA): 5.29 ± 1.07 (μ mol/L) × 10^−3 | SOD, blood serum (SOD, MDA): 817.6 ± 115.6 U/ml
